Assays:
U87MG tumors = test: Ki67 immunohistochemistry in U87MG tumors; assay type: in vivo, mice; conditions: 5 mg/kg BID oral for 4 days; p<0.001
Protocol: Mechanism of action studies. To determine the mechanism of action of Compound 1, mice bearing U87MG tumors of approximately 500 mm^3 were dosed orally with vehicle or Compound 1 at 5 mg/kg BID for 4 days. The positive control, rapamycin, was dosed at 4 mg/kg Q3D for 4 days. Two hours after the 7th dose of Compound 1 on day 4, animals were euthanized and tumors were dissected out and snap frozen in liquid nitrogen. In the rapamycin-treated group tumors were collected at 2 hour after the 2nd dose on day 4. The tumors were processed for immunohistochemistry (IHC) or TUNEL.
Immunohistochemistry. Five to ten micron (5-10 μm) thick cryostat sections were used for IHC. The expression of the cell proliferation marker Ki67 was evaluated by IHC using anti-Ki67 antibody. […] The sections were visualized with a Nikon E800 microscope equipped with fluorescence detection equipment and a digital camera attached to a computer.
Quantitation of Immunohistochemistry. The tissues sections processed for apoptosis or immunostained for proliferating cells (Ki67) or blood vessels were quantitated using Metamorph software. Using 20× objective, 5 different fields from each section, 2-4 sections from each tumor, and 3-4 tumors from each treatment group or control were used for quantitation. The area of interest was expressed as the percent threshold area of the total area. […]

SK-BR-3 = test: Growth inhibition assay for breast cancer; assay type: cell-based; conditions: SK-BR-3 (Luminal, Her2+), 96 hours
Excerpt: (§1) Growth Inhibition Assay for Breast Cancer (BC) (Compound 1). All breast cancer cell lines were maintained and tested in appropriate culture media. The seeding density for each cell line was optimized to ensure assay linearity in 384-well plates.
(§2) Increasing concentrations of Compound 1 were spotted via an acoustic dispenser (EDC ATS-100) into an empty 384-well plate. Compound 1 was spotted in a 10-point serial dilution fashion (3-fold dilution) in duplicate within the plate. The dimethyl sulfoxide (DMSO) concentration was kept constant for a final assay concentration of 0.1% DMSO. Plates were replicated for use against different cell lines and testing periods. After compound plate replication, all plates were sealed (Agilent ThermoLoc) and stored at −20° C. for up to 1 month. When ready for testing, plates were removed from the freezer, thawed, and unsealed just prior to the addition of the test cell.
(§3) Prior to testing, cells were grown and expanded in culture flasks to provide sufficient amounts of starting material. Cells were then diluted to their desired densities and added directly to the Compound 1-spotted 384-well plates. Cells were allowed to grow for 96 hours at 37° C./5% CO2. At the time of setup (t0), initial cell number was assessed via a viability assay (Cell Titer-Glo) and read for luminescence. After 96 hours, cell viability of Compound 1-treated cells was assessed via Cell Titer-Glo and read for luminescence.
(§4) Cell lines were assayed for growth inhibition by Compound 1 for at least two independent tests. All data was normalized and represented as a percentage of the DMSO-treated control cells. […] The potency of Compound 1 in different subtypes of breast cancer cell lines is shown in FIG. 7A, while the correlation of Compound 1 sensitivity to ER, HER, PIK3CA, and TP53 status is shown in FIG. 7B.

MDA-MB-157 = test: Growth inhibition assay for breast cancer; assay type: cell-based; conditions: MDA-MB-157 (Basal, TN), 96 hours
Excerpt: as §1, §2, §3, §4

UACC-812 = test: Growth inhibition assay for breast cancer; assay type: cell-based; conditions: UACC-812 (Luminal, Her2+), 96 hours
Excerpt: as §1, §2, §3, §4

## CO[C@H]1CC[C@H](N2C(=O)CNc3ncc(-c4ccc(C(C)(C)O)nc4)nc32)CC1 [Compound 1, 7-(6-(2-hydroxypropan-2-yl)pyridin-3-yl)-1-((1r,4r)-4-methoxycyclohexyl)-3,4-dihydropyrazino-[2,3-b]pyrazin-2(1H)-one]
U87MG tumors
  reduction in the number of proliferating cells (Ki67) compared with vehicle: 59%
SK-BR-3
  GI50: 121 nM
MDA-MB-157
  GI50: 4340 nM
UACC-812
  GI50: 47.8 nM
